These are literature values, as cited in paper PMC11359394 (Pharmaceutics, 2024).

Data set [1] concerns CYP2C8 and CYP3A4 isoenzymes.
Details of data set [2]: method as in US FDA GRAS Notices. The note with it: rats, dietary consumption; ref US FDA GRAS Notices.

`CC(=O)O[C@H]1C(=O)[C@@]2(C)[C@H]([C@H](OC(=O)c3ccccc3)[C@]3(O)C[C@H](OC(=O)[C@H](O)[C@@H](NC(=O)c4ccccc4)c4ccccc4)C(C)=C1C3(C)C)[C@]1(OC(C)=O)CO[C@@H]1C[C@@H]2O` [Paclitaxel]: the “solubility increase by exploiting the polymorphs” value was 60 fold. The “fraction metabolized in the liver by CYP P450” value in data set [1] is recorded as “Approximately 90%”. As to `C=C1C[C@@]23CC[C@H]4[C@@](C)(CCC[C@@]4(C)C(=O)O[C@@H]4O[C@H](CO)[C@@H](O)[C@H](O)[C@H]4O)[C@@H]2CC[C@]1(O[C@@H]1O[C@H](CO)[C@@H](O)[C@H](O)[C@H]1O)C3` [RUB, Rubusoside], in data set [2], the “dietary dose with no adverse effects” value is listed as “up to 2 g/kg”.
